In paper PMC4335503, “Novel Inhibitors of Cholesterol Degradation in Mycobacterium tuberculosis Reveal How the Bacterium’s Metabolism Is Constrained by the Intracellular Environment” (PLoS Pathogens, 2015):

Tests used:
[1] = biological target: T1, PrpC (2-methylcitrate synthase, Rv1131) (Mycobacterium tuberculosis, UniProt I6Y9Q3); assay: biochemical
T1 construct: full-length, C-terminal 6x-His tag

[2] = biological target: HsaAB (HsaA, of the two-component flavin-dependent hydroxylase) (Mycobacterium tuberculosis, UniProt P9WJA1); assay: biochemical
HsaAB (HsaA, of the two-component flavin-dependent hydroxylase), sequence (P9WND9 whole entry): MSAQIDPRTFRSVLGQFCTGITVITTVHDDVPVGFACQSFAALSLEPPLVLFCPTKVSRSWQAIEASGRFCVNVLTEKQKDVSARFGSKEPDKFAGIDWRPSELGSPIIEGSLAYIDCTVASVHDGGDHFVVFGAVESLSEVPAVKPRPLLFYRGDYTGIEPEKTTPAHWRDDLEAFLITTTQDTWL
HsaAB (HsaA, of the two-component flavin-dependent hydroxylase), sequence (P9WJA1 whole entry): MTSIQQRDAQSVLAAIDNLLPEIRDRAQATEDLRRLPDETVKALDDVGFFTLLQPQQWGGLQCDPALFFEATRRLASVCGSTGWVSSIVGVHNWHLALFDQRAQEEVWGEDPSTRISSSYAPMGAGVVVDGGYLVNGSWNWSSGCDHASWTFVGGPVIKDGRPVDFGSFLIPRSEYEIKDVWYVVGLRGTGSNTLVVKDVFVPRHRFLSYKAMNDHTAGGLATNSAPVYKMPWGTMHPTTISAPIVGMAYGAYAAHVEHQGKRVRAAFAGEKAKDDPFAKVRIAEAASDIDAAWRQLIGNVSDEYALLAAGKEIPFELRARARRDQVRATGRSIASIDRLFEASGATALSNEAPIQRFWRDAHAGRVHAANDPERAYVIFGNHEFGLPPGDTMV

T1 sequence (I6Y9Q3 whole entry): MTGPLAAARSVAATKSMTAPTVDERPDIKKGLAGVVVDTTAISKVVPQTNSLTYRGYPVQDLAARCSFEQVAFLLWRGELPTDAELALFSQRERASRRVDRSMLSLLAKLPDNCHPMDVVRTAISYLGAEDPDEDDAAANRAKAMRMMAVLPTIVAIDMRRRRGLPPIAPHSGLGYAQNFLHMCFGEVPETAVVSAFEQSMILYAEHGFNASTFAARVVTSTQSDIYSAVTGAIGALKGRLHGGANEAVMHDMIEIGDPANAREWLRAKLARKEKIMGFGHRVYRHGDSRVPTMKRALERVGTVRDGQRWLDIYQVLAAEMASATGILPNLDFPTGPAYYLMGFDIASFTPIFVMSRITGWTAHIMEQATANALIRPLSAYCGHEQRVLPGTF

| Compound | IC50 [1] [µM] | IC50 [2] [µM] |
| --- | --- | --- |
| Cc1nnc(NS(=O)(=O)c2ccc(NC(=O)c3cc(-c4ccc(Cl)cc4)oc3C(F)(F)F)cc2)s1 [V-13–009920, 5-(4-chlorophenyl)-N-(4-(N-(5-methyl-1,3,4-thiadiazol-2-yl)sulfamoyl)phenyl)-2-(trifluoromethyl)furan-3-carboxamide] | 4 ± 1.1 |  |
| Cc1noc(C)c1C(=O)Nc1nnc(-c2ccccc2)s1 [V-13–011503, 3,5-dimethyl-N-(5-phenyl-1,3,4-thiadiazol-2-yl)-1,2-oxazole-4-carboxamide] |  | 11 ± 2 |
| Cc1cc(=O)n2[nH]c(-c3ccc(F)cc3)nc2n1 [V-13–012725, 2-(4-fluorophenyl)-5-methyl-1H-[1,2, 4]triazolo[1,5-a]pyrimidin-7-one] |  | 5 ± 0.8 |
